According to patent publication US20030208079A1, “Piperidinylaminomethyl trifluoromethyl cyclic ether compounds as substance P antagonists” (Pfizer Inc., priority 1997, published 2003):

System: plasma protein extravasation in the ureter
Assay: capsaicin-induced plasma extravasation test
Format: in vivo
Conditions: 0.03 mg/kg, given orally 1 hour before capsaicin challenge, male guinea pigs
Protocol: In this test, anti-inflammatory activity is determined as the percent inhibition of plasma protein extravasation in the ureter of pentobarbital-anesthetized (25 mg/kg i.p.) male Hartey guinea pigs (weighing 300-350 g). Plasma extravasation is induced by intraperitoneal injection of capsaicin (30 μM in 0.1 BSA containing buffer, 10 ml/animal) into the animals, which are fasted overnight. The compounds of this invention were dissolved in 0.1% methyl cellulose-water and given orally 1 hour before capsaicin challenge. Evans blue dye (30 mg/kg) was administered intravenously 5 minutes before challenge. The animals were killed 10 minutes after capsaicin injection and both right and left ureter were removed. Tissue dye content was quantitated at 600 nm absorbance after overnight formamide extraction.

COc1cc2c(cc1CN[C@H]1CCCN[C@H]1c1ccccc1)C(C)(C(F)(F)F)OCC2.Cl.Cl (stereo partly drawn) [Example 3, (2S,3S)-3-(6-Methoxy-1-methyl-1-trifluoromethylisochroman-7-yl)methylamino-2-phenylpiperidine Dihydrochloride]
percent inhibition of plasma protein extravasation: 98%
